From ChEMBL document CHEMBL1201862, “PubChem BioAssay data set” (2004)
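Tested at 5 concentrations; 48 h exposure; 96-well plates; endpoints linearly interpolated, else capped at highest concentration. GI50 = concentration required for 50% inhibition of growth.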 Activity calls are given as the source filed them. Cut-off read from the data, not from the text of the source: active = GI50 up to about 1.1 µM and inactive = higher.

Columns and labels:
Experiment in all cases: DTP human tumour cell line panel, 48 h
A549 = test system: A549
HL-60 = test system: HL-60
HOP-92 = test system: HOP-92
HT-29 = test system: HT-29
Hs-578T = test system: Hs-578T
IGROV-1 = test system: IGROV-1
KM12 = test system: KM12
LOX IMVI = test system: LOX IMVI
MDA-MB-435 = test system: MDA-MB-435
MOLT-4 = test system: MOLT-4
Malme-3M = test system: Malme-3M
NCI-H23 = test system: NCI-H23
NCI-H522 = test system: NCI-H522
NCI/ADR-RES = test system: NCI/ADR-RES
OVCAR-8 = test system: OVCAR-8
RPMI-8226 = test system: RPMI-8226
SK-MEL-2 = test system: SK-MEL-2
SNB-19 = test system: SNB-19
TK-10 = test system: TK-10
SK-OV-3 = test system: SK-OV-3

Measured: GI50

Fc1ccc(OCc2ccc3nc(-c4ccccc4)c(Cl)nc3c2)cc1
inactive: A549 38.6 µM | HL-60 33.3 µM | HOP-92 25.7 µM | HT-29 65.2 µM | Hs-578T 24.7 µM | IGROV-1 25.1 µM | KM12 51.6 µM | LOX IMVI 88.5 µM | MDA-MB-435 91.4 µM | MOLT-4 21.6 µM | Malme-3M 9.44 µM | NCI-H23 25.3 µM | NCI-H522 6.19 µM | NCI/ADR-RES 34.1 µM | OVCAR-8 36.4 µM | RPMI-8226 96.2 µM | SK-MEL-2 41.9 µM | SNB-19 > 10 µM | TK-10 31.8 µM

Nc1nc(N)c2nn(-c3ccc(C(=O)O)cc3)nc2n1
inactive: A549 > 100 µM | HL-60 72.1 µM | HOP-92 > 100 µM | HT-29 > 100 µM | Hs-578T > 100 µM | IGROV-1 > 100 µM | KM12 > 100 µM | LOX IMVI > 100 µM | MDA-MB-435 > 100 µM | MOLT-4 > 100 µM | NCI-H23 > 100 µM | NCI-H522 > 100 µM | NCI/ADR-RES > 100 µM | OVCAR-8 > 100 µM | RPMI-8226 > 100 µM | SK-MEL-2 > 100 µM | SK-OV-3 > 100 µM | SNB-19 > 100 µM | TK-10 > 100 µM

O=c1[nH]nc(Cc2ccccc2)n1/N=C\c1ccccc1
inactive: A549 > 100 µM | HL-60 > 100 µM | HOP-92 46.2 µM | HT-29 > 100 µM | Hs-578T 76.2 µM | IGROV-1 84.7 µM | KM12 > 100 µM | LOX IMVI > 100 µM | MDA-MB-435 > 100 µM | MOLT-4 > 100 µM | Malme-3M > 100 µM | NCI-H23 > 100 µM | NCI-H522 > 100 µM | NCI/ADR-RES > 100 µM | OVCAR-8 90.4 µM | RPMI-8226 > 100 µM | SK-MEL-2 31.2 µM | TK-10 > 100 µM

CC1=NN(c2nc(N)nc(/C(C#N)=C/c3ccccc3O)n2)C(C)(C)C1
inactive: A549 15.9 µM | HL-60 30.3 µM | HOP-92 20.1 µM | HT-29 19.8 µM | Hs-578T 16.3 µM | IGROV-1 23.1 µM | KM12 15.8 µM | MDA-MB-435 17.3 µM | MOLT-4 30.4 µM | Malme-3M 18.7 µM | NCI-H23 16.8 µM | NCI-H522 19.8 µM | NCI/ADR-RES 21.4 µM | OVCAR-8 26.5 µM | RPMI-8226 17 µM | SK-MEL-2 22.2 µM | SK-OV-3 23.1 µM | SNB-19 25.5 µM | TK-10 26.7 µM

CC(C)(C)OC(=O)NCC(CNC(=O)OC(C)(C)C)C(N)=O
inactive: A549 > 100 µM | HL-60 > 100 µM | HOP-92 > 100 µM | HT-29 > 100 µM | Hs-578T > 100 µM | IGROV-1 > 100 µM | KM12 > 100 µM | LOX IMVI > 100 µM | MDA-MB-435 > 100 µM | MOLT-4 > 100 µM | Malme-3M > 100 µM | NCI-H23 > 100 µM | NCI-H522 > 100 µM | NCI/ADR-RES > 100 µM | OVCAR-8 > 100 µM | RPMI-8226 > 100 µM | SK-OV-3 > 100 µM | SNB-19 > 100 µM | TK-10 > 100 µM

CNC(=O)CNC(=O)C(Cc1ccc(NC(=O)CCCCC(C)=O)cc1)NC(=O)C(CCC(=O)OCc1ccccc1)NC(=O)OC(C)(C)C (configuration not stated)
inactive: A549 > 100 µM | HL-60 > 100 µM | HOP-92 > 100 µM | HT-29 > 100 µM | Hs-578T > 100 µM | IGROV-1 > 100 µM | KM12 > 100 µM | LOX IMVI > 100 µM | MDA-MB-435 > 100 µM | MOLT-4 > 100 µM | Malme-3M > 100 µM | NCI-H23 > 100 µM | NCI-H522 > 100 µM | NCI/ADR-RES > 100 µM | OVCAR-8 > 100 µM | RPMI-8226 > 100 µM | SK-OV-3 > 100 µM | SNB-19 > 100 µM | TK-10 > 100 µM

O=[N+]([O-])c1cc(-c2nnc(C34CC5CC(CC(C5)C3)C4)o2)cc([N+](=O)[O-])c1
inactive: A549 48.1 µM | HL-60 > 100 µM | HOP-92 36.1 µM | HT-29 6.41 µM | Hs-578T 64.7 µM | IGROV-1 > 100 µM | KM12 > 100 µM | LOX IMVI > 100 µM | MDA-MB-435 19.1 µM | MOLT-4 > 100 µM | Malme-3M 64.4 µM | NCI-H23 > 100 µM | NCI-H522 > 100 µM | NCI/ADR-RES > 100 µM | OVCAR-8 25.5 µM | RPMI-8226 82.2 µM | SK-MEL-2 63.4 µM | SK-OV-3 > 100 µM | SNB-19 > 100 µM
